From US20250312440A1, “CHEMICAL SCREEN OF MODULATORS FOR VACCINE ADJUVANTS” (THE UNIVERSITY OF CHICAGO, priority 2022, published 2025)

Experiments:
[1] = test system: human THP-1 monocytes; test: Cytokine level screening in THP-1 cells (AlphaLISA/AlphaPlex, modulator + agonist); format: cell-based
Protocol: THP-1 cells were seeded at 50,000 cells per well in 45 μL of biotin-free RPMI+5% HI-FBS in clear 384 well plates. Following 24h incubation, 50 nL of 10 mM modulator libraries were added by Janus G3 via pintool to experimental wells (cols 3-22) for a final concentration of 10 μM. After 1 hour, 5 μL of agonist was added via a MultiDrop Combi liquid handler (col 3-23). The following day, 5 μL of supernatant was transferred to white low volume ProxiPlates. 10 μL of a prepared acceptor bead (10 μg/mL final conc), biotinylated antibody (1 nM final conc) mixture was added via liquid handler to the cell supernatant. After 1 hr incubation at RT, 5 μL of donor beads (40 μg/mL final conc) were added in the dark. After an additional 1 hr incubation, plates were read on a plate reader with AlphaPlex filters for europium (615 nm) and terbium (545 nm) emission. A separate plate was run each day containing a standard curve of known analyte for interpolation purposes.
Cytokines and chemokines are a broad category of secreted proteins important for adjuvants in regulating adaptive immunity (23). However, excessive production of cytokines by adjuvants can result in direct tissue damage and are correlated with vaccine tolerability (24, 25). To validate the findings of the primary screening results and to explore the impact on downstream immune outcomes, the inventors measured levels of six cytokines and chemokines involved in inflammation and adaptive responses (IL-12p40, IP-10, IL-1b, CCL4, TNF-α, and IFN-b, Table 4). The inventors measured cytokine expression through AlphaLISA, an assay well-suited to high throughput due to its large dynamic range, in situ measurement, and broad range of cytokines. It has been previously used to investigate small molecule biological inhibitors (26-28).
Cell supernatants were collected and cytokines were measured in three duplex measurements (FIG. 11A). Similarly, the inventors optimized standard curve ranges, crosstalk correction factors, incubation times and other factors of the secondary screen (FIGS. 11B-11D). As in the inventors' primary screen, modulators enhance or inhibit cytokine production among all six cytokines and for each agonist independently (FIGS. 4A-4G, FIG. 11E). The distributions within cytokines vary based on the dynamic range and Z-factor obtained for each cytokine and agonist studied (Table 5). High throughput screening utilizes Z-factors as a proxy for statistical reliability of an assay, due to the dynamic range of the positive controls and the inherent cytokines secreted for each agonist, a Z-factor score greater than zero was not obtained for certain agonists/[…] combinations. Since each agonist produced differing levels of cytokine that were sometimes at the limits of standard curve, amending this assay to a high throughout nature was challenging. […] Since the inventors measured fold-change and reduce dimensionality further in analysis, this approach was adequate to compare compounds within the inventors' dataset for down-selection.
After considering categorical and ranked scoring systems, the inventors decided the best representation of modulator performance would need to preserve cytokine changes but do so by normalizing for each cytokine's and agonist's dynamic range (37). Because of the differences in dynamic range of all the inventors' six cytokines, the inventors sought to normalize the data to ensure no distribution would bias the inventors' results. Thus, the inventors transformed each cytokine's distributions to a range from −1 to 1 (FIG. 5A). Unlike the previous screen, the inventors considered increases and decreases in cytokine responses separately when selecting molecules for vaccination studies. In the vaccine score, a promising candidate would need to produce minimal pro-inflammatory cytokines while increasing IFN-b and chemokine production (24, 25). Additionally, the inventors might prioritize the importance of one cytokine's modulation over another. […]

[2] = test system: IL-6 and TNF-α; details: with CPG adjuvant; cited from earlier work
[3] = test system: TNF-α; test: Plasma cytokine analysis 1 hr after OVA vaccination with agonist + modulator; format: in vivo, mice; details: 1 hr after vaccination, CpG 50 μg + modulator 1.5 μmol
Protocol: All animal procedures were performed under a protocol approved by the University of Chicago Institutional Animal Care and Use Committee (IACUC). 6-to-8-week-old C57/B6 female mice were purchased from the Jackson laboratory. All vaccinations were administered intramuscularly in the hind leg. Blood was collected from the submandibular vein at time points indicated.
Mice were lightly anesthetized with isoflurane and injected intramuscularly in the hind leg with an injection volume of 50 μL containing antigen, adjuvant, and a DMSO/AddaVax combination. Antigen dose was as follows: OVA (100 μg)). Agonists doses were as follows: Flagellin, 10 μg; R848, 50 μg; CpG, 50 μg. Modulators were added at 1.5 μmol.
Blood was collected from mice at specified time points in 0.2 mL of heparin-coated collection tubes (VWR Scientific). […] Plasma was analyzed using Bio-Legend's LegendPlex™ Mouse Inflammation Cytokine Panel (13-Plex) according to the manufacturer's protocol. Samples were analyzed using an ACEA NovoCyte Flow Cytometer. Data were analyzed using LEGENDplex™ Data Analysis Software Suite and GraphPad Prism.
The inventors used the vaccine score to select modulators to test in a murine in vivo model. […] The inventors monitored inflammatory cytokine levels one hour following initial injections and monitored antigen specific antibody levels at the indicated timepoints post-boost (FIG. 6A). […]

[4] = THP-1, 10 μM modulator, across agonists
[5] = THP-1, 10 μM modulator, across receptors studied

## Cc1ccc(NC(=O)c2ccc(CN3CC[C@H](N(C)C)C3)c(C(F)(F)F)c2)cc1Nc1nccc(-c2cncnc2)n1 [Bafetinib]
[1]; Pam3, Pam2 vs cGAMP
  difference in enhancement of IP-10 and IFN-b between agonists: ~2 orders of magnitude

## CS[C@@]1(C(=O)Nc2ccc3[nH]nc(-c4ccc(OC(C)C)nc4)c3c2)CCN(CC(=O)N2CC=C(c3ccc(-c4ncn(C)n4)cc3)CC2)C1 [MK-8353]
[1]; [4]
  IFN-b production, modulator+agonist vs agonist alone: ablates
  IL-12 production, modulator+agonist vs agonist alone: ablates
  IP-10 production, modulator+agonist vs agonist alone: ablates
[1]; [5]
  IL-1b enhancement: up to 100 fold
  TNF-α enhancement: up to 100 fold

## CN(C)c1ccc2c(c1)Sc1cc(N(C)C)ccc1N2.CS(=O)(=O)O.CS(=O)(=O)O [TRx0237(LMTX) mesylate]
[1]; [4]
  IFN-b production, modulator+agonist vs agonist alone: enhance IFN-b secretion across all agonists studied
[1]; THP-1, 10 μM modulator, cGAMP
  TNF-α enhancement using cGAMP: up to 36 fold

## COc1cc(CNC(=O)CCCC/C=C/C(C)C)ccc1O [capsaicin]
[2]
  pro-inflammatory systemic IL-6 and TNF-α levels: reduce

## CN1CCN(C2CCN(C(=O)Nc3cc(Oc4ccc(NC(=O)C5(C(=O)Nc6ccc(F)cc6)CC5)c(F)c4)ccn3)CC2)CC1 [compound 2, Golvatinib]
[3]
  systemic TNF-α for CpG: ~0

## O=c1cc(-c2cccc3c2Sc2ccccc2S3)oc(N2CCOCC2)c1 [compound 3]
[3]
  systemic TNF-α for CpG: ~0

## C=CCc1ccc(O)c(-c2ccc(O)c(CC=C)c2)c1 [honokiol]
[2]
  pro-inflammatory systemic IL-6 and TNF-α levels: reduce
